The target in experiment [1] is T1, G-protein coupled bile acid receptor 1 (Homo sapiens, UniProt Q8TDU6).
T1 sequence (Q8TDU6 whole entry): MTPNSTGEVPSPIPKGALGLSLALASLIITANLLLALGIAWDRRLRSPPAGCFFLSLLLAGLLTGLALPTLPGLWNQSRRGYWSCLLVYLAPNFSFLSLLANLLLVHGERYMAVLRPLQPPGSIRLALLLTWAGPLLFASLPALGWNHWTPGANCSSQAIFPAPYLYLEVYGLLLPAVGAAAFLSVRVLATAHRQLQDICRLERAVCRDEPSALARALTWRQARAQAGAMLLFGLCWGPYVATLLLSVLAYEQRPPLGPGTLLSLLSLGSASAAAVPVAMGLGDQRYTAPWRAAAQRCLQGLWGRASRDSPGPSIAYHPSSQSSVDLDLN
The experiment is described as follows: TGR5/CRE Luciferase Assay: In the following tables TGR5 activation by compounds and subsequent increase in intracellular cAMP were evaluated using a luciferase reporter gene assay. Human embryonic kidney (HEK) 293 cells were transiently co-transfected with pCMV tag4b-TGR5 h (to follow hTGR5 activation) or pCMV AC6-TGR5m (to follow mTGR5 activation) expression plasmids and the pCRE TA-Luciferase reporter plasmid using the JET PEI reagent (Polyplus transfection). Transfected cells were seeded in 96-well plates and incubated overnight with the test compounds at increasing concentrations tested in duplicate. Lithocolic acid (LCA) at 10 μM was used as a positive reference compound. The cAMP-dependent luciferase expression was followed using the BrightGlo reagent according to the manufacturer (Promega) instructions. Luminescence was read with a Mithras plate reader (Berthold). […] Concentration-response curves were fitted by a nonlinear regression analysis to a 4 parameter logistic equation. The format is cell-based.

Experiment [2] has as its target T2, G-protein coupled bile acid receptor 1 (Mus musculus, UniProt Q80SS6).
T2 sequence (Q80SS6 whole entry): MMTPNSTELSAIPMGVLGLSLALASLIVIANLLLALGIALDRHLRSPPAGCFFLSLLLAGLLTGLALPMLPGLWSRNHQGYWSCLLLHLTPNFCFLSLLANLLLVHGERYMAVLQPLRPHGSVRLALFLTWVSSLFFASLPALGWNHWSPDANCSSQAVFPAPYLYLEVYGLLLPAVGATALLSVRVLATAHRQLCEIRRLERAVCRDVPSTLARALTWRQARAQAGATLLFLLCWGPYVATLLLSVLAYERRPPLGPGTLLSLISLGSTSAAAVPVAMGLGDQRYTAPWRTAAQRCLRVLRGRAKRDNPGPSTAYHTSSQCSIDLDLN
The experiment is described as follows: TGR5/CRE Luciferase Assay: In the following tables TGR5 activation by compounds and subsequent increase in intracellular cAMP were evaluated using a luciferase reporter gene assay. Human embryonic kidney (HEK) 293 cells were transiently co-transfected with pCMV tag4b-TGR5 h (to follow hTGR5 activation) or pCMV AC6-TGR5m (to follow mTGR5 activation) expression plasmids and the pCRE TA-Luciferase reporter plasmid using the JET PEI reagent (Polyplus transfection). Transfected cells were seeded in 96-well plates and incubated overnight with the test compounds at increasing concentrations tested in duplicate. Lithocolic acid (LCA) at 10 μM was used as a positive reference compound. The cAMP-dependent luciferase expression was followed using the BrightGlo reagent according to the manufacturer (Promega) instructions. Luminescence was read with a Mithras plate reader (Berthold). Data were expressed as percentage of the 10 μM LCA value and EC50 values were calculated using XL fit 5 software or GraphPad Prism 5. Concentration-response curves were fitted by a nonlinear regression analysis to a 4 parameter logistic equation. Type of experiment: cell-based.

Results on four compounds are retold here after ChEMBL document CHEMBL5727106, “Imidazol- or 1,2,4-triazol-derivatives and their use” (2019).

Usually EC50 stands for the midpoint of the concentration-response curve.

In the case of `COCCOCCOCCOCCOCCOCCOCCOCCOCCOc1cc(F)c(CSc2ncc(N(C)c3ccc(OC)c(OC)c3)n2-c2ccc(F)cc2)c(F)c1`, the values for the EC50 in experiment [1] and in experiment [2] were 160 nM and 18 nM, respectively.

Consider `COCCOCCOCCOCCOCCOCCOCCOCCOCCOCCOc1cc(F)c(CSc2ncc(N(C)c3ccc(OC)c(OC)c3)n2-c2ccc(F)cc2)c(F)c1`, for which the EC50 in experiment [1] was 580 nM; in experiment [2] it was 29 nM.

In the case of `COCCOCCOCCOCCOCCOCCOCCOCCOCCOCCOCCOCCOCCOCCOCCOCCOCCOCCOCCOCCOCCOCCOCCOCCOCCOCCOCCOCCOCCOCCOCCOCCOCCOCCOCCOCCOCCOc1cc(F)c(CSc2ncc(N(C)c3ccc(OC)c(OC)c3)n2-c2ccc(F)cc2)c(F)c1`, the EC50 in experiment [1] was 1200 nM; in experiment [2] it was 68 nM.

For `COCCOCCOCCOCCOCCOCCOCCOCCOCCOCCOCCOCCOCCOCCOCCOCCOc1cc(F)c(CSc2ncc(N(C)c3ccc(OC)c(OC)c3)n2-c2ccc(F)c(OC)c2)c(F)c1`, the EC50 is 330 nM in experiment [1] and 26 nM in experiment [2].
